Source: patent US8410247B2, “Water-soluble phosphinothiol reagents” (Wisconsin Alumni Research Foundation, priority 2008, dated 2013)
Values after ≈ are worked out from the molar mass of the structure shown. Read-outs that look alike come from different tables or passages of the source. Values belong to the compound of their own block, whether it stands above or below them.

Columns and labels:
[1] = Solubility in water or aqueous sodium phosphate buffer; type: physicochemical; conditions: 0.4 M sodium phosphate buffer (pH 7.8)
[2] = Stability in air / on storage; type: physicochemical; conditions: chloride salt, solid
[3] = Gly+Gly coupling in DMF/D2O (6:1), reported previously; cited from earlier work
[4] = pKa determination by 31P NMR spectroscopy; type: physicochemical; conditions: control experiment, sodium phosphate buffer containing 20% v/v D2O
Method: The pKa values of phosphinothiols 33-35 were determined to quantitate the impact of Coulombic effects. […] Thus, the phosphorous pKa value of the cationic phosphinothiols appears to be below the limit of experimental detection. […] (Moore, S. J.; Marzilli, L. G. Inorg. Chem. 1998, 37, 5329-810 5335.) That value is much larger than the phosphorous pKa of phosphinothiols 33-35, consistent with the present hypothesis that through-space Coulombic effects lower the pKa of neighboring atoms, and in particular discourage protonation of the key iminophosphorane intermediate.
pKa Determination of phosphinothiols […] (10 mg) were each dissolved in sodium phosphate buffer containing 20% v/v D2O. 750 The solution was adjusted with a solution of either 6 N HCl or 2 N NaOH, and chemical shifts at each pH were determined by ^31P NMR spectroscopy. An external standard (D3PO4) was used to calibrate the chemical shifts. […] (Podlaha, J.; Podlahova, J. Collect. Czech. Chem. Commun. 1973, 38, 1730-1736.)

[5] = cited from earlier work; for pKa: ammonium pKa (Brown 1955)

solubility ([1]; aqueous buffer, chloride salt, read-out: solubility): > 1000 mM
stability in air [2]: stable in air for several days
SMILES: CN(C)CCc1ccc(P(CS)c2ccc(CCN(C)C)cc2)cc1 [phosphinothiol 17, bis(p-dimethylaminoethyl) phosphinomethanethiol]

SMILES: SCP(c1ccccc1)c1ccccc1 [phosphinothiol 1, (Diphenylphosphino)methanethiol]
second-order rate constant k2 [3]: 0.0077 M⁻¹ s⁻¹

SMILES: O=C(O)CCP(CCC(=O)O)CCC(=O)O [TCEP, tris(2-carboxyethyl)phosphine]
pKa [4]: 7.7
pKa, reported value ([5]; reported value (Podlaha 1973)): 7.66

solubility [1]: ~50 mM (≈ 21.7 mg/mL)
SMILES: O=C(O)CNC(=O)c1ccc(P(CS)c2ccc(C(=O)NCC(=O)O)cc2)cc1 [phosphinothiol 9]

SMILES: Fc1ccc(P(c2ccc(F)cc2)c2ccc(F)cc2)cc1 [(p-F—C6H4)3P]
phosphorous pKa ([5]; in water (Moore 1998)): 1.97

SMILES: CCCCCCCCCN [CH3(CH2)8NH3^+]
pKa [5]: 10.65

SMILES: NCCCCCN [^+H3N(CH2)5NH3^+]
pKa [5]: 9.74

SMILES: CCCCCCN [CH3(CH2)5NH3^+]
pKa [5]: 10.63

SMILES: NCCCCCCCCN [^+H3N(CH2)8NH3^+]
pKa [5]: 10.10

SMILES: CCP(c1ccccc1)c1ccccc1 [EtPPh2]
phosphorous pKa ([5]; neutral mimic of HSCH2PPh2 (Moore 1998)): 4.90

SMILES: COc1ccc(P(c2ccc(OC)cc2)c2ccc(OC)cc2)cc1 [(p-OMe-C6H4)3P]
phosphorous pKa ([5]; in water (Moore 1998)): 4.57

SMILES: c1ccc(P(c2ccccc2)c2ccccc2)cc1 [Ph3P]
phosphorous pKa ([5]; in water (Moore 1998)): 2.73
